Source: PMC2909581 (Clinical cancer research : an official journal of the …, 2010)

Tests used:
clinical = assay type: in vivo, human
[1] = Sorafenib and N-oxide metabolite plasma pharmacokinetics; assay type: in vivo, human
[2] = Maximum, Day 1, in combination with tanespimycin
[3] = Maximum, Day −1, sorafenib given alone
[4] = Mean, Day 1, in combination with tanespimycin, steady-state, eleven patients
[5] = Mean, Day −1, sorafenib given alone, steady-state, eleven patients
[6] = Minimum, Day 1, in combination with tanespimycin
[7] = Minimum, Day −1, sorafenib given alone

| SMILES | Cmax on days 1 and 15 compared (clinical; concurrent sorafenib) | Cmax (end of infusion) and AUC versus tanespimycin dose (clinical; in vivo, iv) | AUClast [1, 2] | Cmax [1, 2] | Tmax [1, 2] | AUClast [1, 3] | Cmax [1, 3] | Tmax [1, 3] | AUClast [1, 4] | Cmax [1, 4] | Tmax [1, 4] | AUClast [1, 5] | Cmax [1, 5] | AUClast [1, 6] | Cmax [1, 6] | AUClast [1, 7] | Cmax [1, 7] | Tmax [1, 7] |
| --- | --- | --- | --- | --- | --- | --- | --- | --- | --- | --- | --- | --- | --- | --- | --- | --- | --- | --- |
| CO[C@H]1/C=C/C=C(\C)C(=O)NC2=CC(=O)C(N)=C(C[C@@H](C)C[C@H](OC)[C@H](O)[C@@H](C)/C=C(\C)[C@@H]1OC(N)=O)C2=O [17-AG] | similar | increased with increasing tanespimycin dose | – | – | – | – | – | – | – | – | – | – | – | – | – | – | – | – |
| CNC(=O)c1cc(Oc2ccc(NC(=O)Nc3ccc(Cl)c(C(F)(F)F)c3)cc2)cc[n+]1[O-] [N-oxide sorafenib] | – | – | 40.5 µM·h | 7300 nM | 10.0 h | 45.7 µM·h | 6400 nM | 10.0 h | 16.1 µM·h | 2600 nM | 8.5 h | 15.5 µM·h | 2000 nM | 5.5 µM·h | 700 nM | 3.2 µM·h | 500 nM | 1.0 h |
